Test results reported in patent US20250144067A1, “PERSONALIZED STARVATION THERAPY FOR CANCER” (Faeth Therapeutics, Inc., priority 2021, published 2025).
Where a name gives a salt, the structure may show the parent alone. Ends that are not written are not given here.

Key:
[1] = system: NCI-H292 lung cancer cells; assay: FDA drug screening, complete media vs cholesterol-free media with simvastatin (TABLE 2); type: cell-based, human; settings: for Cholesterol-free media + simvastatin (0.04 μM) / Complete Media: NCI-H292 cells
[2] = system: NCI-H292 lung cancer cells; assay: FDA drug screening, complete media vs cholesterol-free media without statin (TABLE 1); type: cell-based, human
[3] = cholesterol-free media with simvastatin 0.04 μM, FDA drug library screen (TABLE 2)
[4] = complete media, FDA drug library screen (TABLE 2)
[5] = complete media minus cholesterol-free media + simvastatin (0.04 μM), […]
[6] = Complete minus Cholesterol-free, […]
[7] = NCI-H292 cells, cholesterol-free media without statin, FDA drug library screen
[8] = NCI-H292 cells, complete media, FDA drug library screen
[9] = FDA drug library screen, cholesterol-free media with simvastatin 0.04 μM
[10] = FDA drug library screen, complete media
[11] = complete media minus cholesterol-free media + simvastatin, […]
[12] = cholesterol-free media with simvastatin 0.04 μM, cell growth value in FDA drug screen
[13] = complete media, cell growth value in FDA drug screen
[14] = complete media minus cholesterol-free media + simvastatin, >0 enhanced anti-cancer activity, about 0 neutral, <0 antagonist
[15] = Complete minus Cholesterol-free, greater than 0 enhanced anti-cancer activity, about 0 neutral, below 0 antagonists
[16] = NCI-H292 cells in cholesterol-free media without statin
[17] = NCI-H292 cells in complete media
[18] = complete media vs cholesterol-free media + simvastatin (0.04 μM), >0 enhanced anti-cancer activity, about 0 neutral, <0 antagonist
[19] = Complete minus Cholesterol-free, >0 enhanced anti-cancer activity, about 0 neutral, <0 antagonist
[20] = NCI-H292 cells, cholesterol-free media without statin

CC(O)C(=O)O.CCOc1ccc2nc3cc(N)ccc3c(N)c2c1.O [Ethacridine (lactate monohydrate)]
Cholesterol-free media + simvastatin (0.04 μM) [1, 3]: 0.1737 | Complete Media [1, 4]: 0.1706 | Difference [1, 5]: 0.00 | Difference [2, 6]: −0.05 | Cholesterol-free [2, 7]: 0.2006 | Complete [2, 8]: 0.1519

Cc1ccccc1-n1c(CF)nc2ccc(N)cc2c1=O [Afloqualone]
Cholesterol-free media + simvastatin (0.04 μM) [1, 9]: 1.16 | Complete Media [1, 10]: 1.332 | Difference [1, 11]: 0.17 | Difference [2, 6]: 0.04 | Cholesterol-free [2, 7]: 1.063 | Complete [2, 8]: 1.104

Thymopentin (acetate)
Complete Media [1, 4]: 1.151 | Difference [1, 5]: 0.00 | Cholesterol-free [2, 7]: 0.9838 | Complete [2, 8]: 1.095 | Difference ([2]; complete vs cholesterol-free media, […]): 0.11

CC(C(=O)O)c1ccc(CC2CCCC2=O)cc1 (stereo not shown) [Loxoprofen]
Cholesterol-free media + simvastatin (0.04 μM) [1, 12]: 0.9936 | Complete Media [1, 13]: 1.115 | Difference [1, 14]: 0.12 | Difference [2, 15]: −0.88 | Cholesterol-free [2, 16]: 1.914 | Complete [2, 17]: 1.039

CC(N/C(=N\C#N)Nc1ccncc1)C(C)(C)C (stereo not shown) [Pinacidil monohydrate]
Cholesterol-free media + simvastatin (0.04 μM) ([1]; FDA library drug in cholesterol-free media with simvastatin 0.04 μM): 1.085 | Complete Media ([1]; FDA library drug in complete media): 0.8064 | Difference [1, 18]: −0.28 | Difference [2, 19]: −0.26 | Cholesterol-free [2, 20]: 1.093 | Complete ([2]; NCI-H292 cells, complete media): 0.8337

CC1=C(C)C(=O)C(CCCCCCCCCC[P+](c2ccccc2)(c2ccccc2)c2ccccc2)=CC1=O.[Br-] [Visomitin]
Cholesterol-free media + simvastatin (0.04 μM) ([1]; cholesterol-free media with simvastatin 0.04 μM, […]): 0.1378 | Complete Media ([1]; complete media, […]): 0.1554 | Difference [1, 11]: 0.02 | Difference [2, 6]: −0.06 | Cholesterol-free [2, 7]: 0.06935 | Complete [2, 8]: 0.01194

O=C(CCCCC(=O)Nc1c(I)cc(I)c(C(=O)O)c1I)Nc1c(I)cc(I)c(C(=O)O)c1I [Iodipamide]
Cholesterol-free media + simvastatin (0.04 μM) ([1]; drug in cholesterol-free media with simvastatin 0.04 μM): 1.387 | Complete Media ([1]; drug in complete media): 1.135 | Difference [1, 18]: −0.25 | Difference ([2]; Complete minus Cholesterol-free, greater than 0 enhanced anti-cancer activity, about 0 neutral, below 0 antagonist): −0.08 | Cholesterol-free ([2]; NCI-H292 cells, FDA drug library screen, cholesterol-free media without statin): 0.9527 | Complete ([2]; NCI-H292 cells, FDA drug library screen, complete media): 0.876

CC[C@@]1(O)C(=O)OCc2c1cc1n(c2=O)Cc2cc3c(CN(C)C)c(O)ccc3nc2-1 [Topotecan (Hydrochloride)]
Cholesterol-free media + simvastatin (0.04 μM) [1, 9]: 0.1355 | Complete Media [1, 10]: 0.04638 | Difference [1, 18]: −0.09 | Difference [2, 19]: −0.03 | Cholesterol-free [2, 7]: 0.05524 | Complete [2, 8]: 0.02609

Cyclic somatostatin (AGCKNFFWKTFTSC; not fully specified (bridges); cysteine pairing not given here; UniProt P61278 103-116, looked up)
Cholesterol-free media + simvastatin (0.04 μM) [1, 3]: 0.9769 | Difference [1, 5]: −0.04 | Difference [2, 6]: 0.00 | Cholesterol-free [2, 7]: 1.02 | Complete [2, 8]: 1.023

O=C(c1ccc(F)c(F)c1Nc1ccc(I)cc1F)N1CC(O)([C@@H]2CCCCN2)C1 (racemic) [Cobimetinib (racemate)]
Cholesterol-free media + simvastatin (0.04 μM) [1, 9]: 0.2662 | Complete Media [1, 10]: 0.405 | Difference [1, 14]: 0.14 | Difference [2, 19]: −0.02 | Cholesterol-free [2, 7]: 0.2982 | Complete [2, 8]: 0.2751

Cc1ncc([N+](=O)[O-])n1CC(O)CCl (stereo not shown) [Ornidazole (Levo-)]
Cholesterol-free media + simvastatin (0.04 μM) [1, 12]: 0.9725 | Complete Media [1, 13]: 1.072 | Difference [1, 14]: 0.10 | Difference [2, 15]: −0.58 | Cholesterol-free [2, 16]: 1.634 | Complete [2, 17]: 1.058

CCOC(=O)CC(=O)N1CCSC1COc1ccccc1OC (stereo not shown) [Moguisteine]
Cholesterol-free media + simvastatin (0.04 μM) [1, 3]: 0.9351 | Complete Media [1, 4]: 0.879 | Difference ([1]; complete media minus cholesterol-free media + simvastatin (0.04 μM), >0 enhanced anti-cancer activity, about 0 neutral, <0 antagonist): −0.06 | Cholesterol-free [2, 7]: 0.7084 | Complete [2, 8]: 1.262 | Difference ([2]; complete vs cholesterol-free media, >0 enhanced anti-cancer activity, about 0 neutral, <0 antagonist): 0.55

CCC1(C)CC(=O)NC1=O (stereo not shown) [Ethosuximide]
Cholesterol-free media + simvastatin (0.04 μM) [1, 9]: 1.133 | Complete Media [1, 10]: 0.9952 | Difference [1, 18]: −0.14 | Difference [2, 19]: −0.24 | Cholesterol-free [2, 20]: 1.124 | Complete ([2]; NCI-H292 cells, complete media): 0.884
